# Patent US20230123334A1, “AMINO LIPID COMPOUND, PREPARATION METHOD THEREFOR, AND APPLICATION THEREOF” (SHENZHEN SHENXIN BIOTECHNOLOGY CO., LTD., priority 2020, published 2023)
# Test system: HEK293 cells
# Test: Preliminary screening as mRNA vectors, EGFP mRNA transfection of HEK293 cells
# Format: cell-based
# Details: EGFP mRNA 50 ng per well, 96-well plates; percentage of GFP fluorescent cells relative to total number of cells (Hoechst)
# Method: Cell line: HEK293 cells (ATCC CRL-1573™)
# Medium: DMEM supplemented with 10% fetal bovine serum (Invitrogen)
# Screening: cell transfection on 96-well plates
# Detection (readout): percentage of the number of GFP fluorescent cells relative to the total number of cells (the total number of cells was determined using nucleus dye Hoechst). Lipofectamine2000 (Invitrogen) was used as the positive control.
# Method: the experimental method was basically the same with Example 4, and the mass of EGFP mRNA (TriLink) for transfection was 50 ng per well.
row,SMILES,Absolute mRNA transfection efficiency in HEK293 cells [%]
1,CCCCCCCCCCCCCCCCNc1nc(NCCCN(C)C)nc(SCCCCCCCCCCCCCCCC)n1 [Compound D6S16N16],0.1
2,CCCCCCCCCCCCSc1nc(NCC2CCN(C)CC2)nc(SCCCCCC)n1 [Compound D10S6S12],41.2
3,CCCCCCCCSc1nc(NCCCCCCC)nc(NCCN2CCCC2)n1 [Compound D3S8N7],0.7
4,CCCCCCCCCCCCCCSc1nc(NCCCCCCCCCCCCC)nc(NCCCN2CCN(C)CC2)n1 [Compound D9S14N13],4.8
5,CCCCCCCCCCCCCCCSc1nc(NCCCCCCCCC)nc(NCCN(CC)CC)n1 [Compound D7S15N9],9.4
6,CCCCCCCCCCSc1nc(NCCCCCCC)nc(NCCN2CCOCC2)n1 [Compound D2S10N7],0.5
7,CCCCCCCCCCCNc1nc(NCCCN(C)C)nc(SCCCCCCCC)n1 [Compound D6S8N11],32.3
8,CCCCCCCCCCCCCCCCSc1nc(NCCN2CCCCC2)nc(N(CCCCCCCCCCCC)CCCCCCCCCCCC)n1 [D4S16^2N12],0.3
9,CCCCCCCCCCCCCCCCCCSc1nc(NCCCCCCCC)nc(NCCN2CCCC2)n1 [Compound D3S18N8],93.3
10,CCCCCCCCCCCCCCCCCCSc1nc(NCCCCCCCCCCCCCCCC)nc(NCC2CCN(C)CC2)n1 [Compound D10S18N16],0.4
11,CCCCCCCCCCCCCCCNc1nc(NCCN2CCOCC2)nc(SCCCCCCCCCCC)n1 [Compound D2S11N15],2.8
12,CCCCCCCCCCCCCCCSc1nc(NCCN2CCOCC2)nc(N(CCCCCCCCCCCC)CCCCCCCCCCCC)n1 [D2S15^2N12],0.4
13,CCCCCCCCCCCCCCCSc1nc(NCCCCCCCCCCCCC)nc(NCCN2CCOCC2)n1 [Compound D2S15N13],0.1
14,CCCCCCCCCCCCSc1nc(NCCCCCCCC)nc(NCCN(C)C)n1 [Compound D1S12N8],11.3
15,CCCCCCCCCCCCCCSc1nc(NCCCCCCCC)nc(NCCCN(C)C)n1 [Compound D6S14N8],80.6
16,CCCCCCCCCCCCCCCNc1nc(NCCN(CC)CC)nc(SCCCCCCCCCCCC)n1 [Compound D7S12N15],1.3
17,CCCCCCCCCCCCCNc1nc(NCCN2CCOCC2)nc(SCCCCCC)n1 [Compound D2S6N13],0.2
18,CCCCCCCCCCCCCCSc1nc(NCCCCCCC)nc(NCCCN2CCN(C)CC2)n1 [Compound D9S14N7],50.1
19,CCCCCCCCCCCCCCCCCCSc1nc(NCCCCCC)nc(NCCN2CCCCC2)n1 [Compound D4S18N6],1.5
20,CCCCCCCCCCCSc1nc(NCCCCCCCC)nc(NCCN2CCCC2)n1 [Compound D3S11N8],31.8
21,CCCCCCCCCCCCNc1nc(NCCN2CCCC2)nc(SCCCCCC)n1 [Compound D3S6N12],4.1
22,CCCCCCCCCCCCCCCNc1nc(NCCCN(C)C)nc(SCCCCCCCCCCC)n1 [Compound D6S11N15],13.1
23,CCCCCCCCCCCCCCCCCCSc1nc(NCCCCCCCCCCCCCCCC)nc(NCCN2CCCC2)n1 [Compound D3S18N16],0.5
24,CCCCCCCCCCCCN(CCCCCCCCCCCC)c1nc(NCCN2CCCCC2)nc(SCCCCCCCCC)n1 [D4S9^2N12],0.1
25,CCCCCCCCCCCCCCCCCCSc1nc(NCCCCCCCCCCCCCCCC)nc(NCCCN(C)C)n1 [Compound D6S18N16],0.0

row,SMILES,Absolute mRNA transfection efficiency in HEK293 cells [%]
1,CCCCCCCCCCCCNc1nc(NCCN(CC)CC)nc(SCCCCCCCCCCC)n1 [Compound D7S11N12],7.8
2,CCCCCCCCCCCCSc1nc(NCCN(CC)CC)nc(SCCCCCCCC)n1 [Compound D7S8S12],1.3
3,CCCCCCCCCSc1nc(NCCN2CCCC2)nc(SCCCCCCC)n1 [Compound D3S7S9],12.6
4,CCCCCCCCCCCCCCCNc1nc(NCCN2CCN(C)CC2)nc(SCCCCCCCCCCC)n1 [Compound D5S11N15],20.4
5,CCCCCCCCNc1nc(NCCN2CCOCC2)nc(SCCCCCC)n1 [Compound D2S6N8],0.0
6,CCCCCCCSc1nc(NCCN2CCCC2)nc(SCCCCCC)n1 [Compound D3S6S7],1.3
7,CCCCCCCCCSc1nc(NCCCCCCC)nc(NCCN2CCOCC2)n1 [Compound D2S9N7],4.2
8,CCCCCCCCCCCCCCCCNc1nc(NCCN2CCOCC2)nc(SCCCCCCCCCCCCCCC)n1 [Compound D2S15N16],1.4
9,CCCCCCCCCCCCN(CCCCCCCCCCCC)c1nc(NCCN2CCOCC2)nc(SCCCCCCCCC)n1 [D2S9^2N12],0.1
10,CCCCCCCCCNc1nc(NCCCN2CCN(C)CC2)nc(SCCCCCCC)n1 [Compound D9S7N9],5.2
11,CCCCCCCCCCSc1nc(NCCN2CCOCC2)nc(SCCCCCC)n1 [Compound D2S6S10],4.6
12,CCCCCCCCCCCCCCCSc1nc(NCCCCCCCCCCCCC)nc(NCC2CCN(C)CC2)n1 [Compound D10S15N13],5.4
13,CCCCCCCCCSc1nc(NCCCCCCCC)nc(NCCN2CCCC2)n1 [Compound D3S9N8],10.4
14,CCCCCCCCCCCCCCCCCCSc1nc(NCCCCCCCCCCCC)nc(NCCN2CCN(C)CC2)n1 [Compound D5S18N12],1.7
15,CCCCCCCCCCCCCCCNc1nc(NCCN2CCCC2)nc(SCCCCCCCCCCCC)n1 [Compound D3S12N15],1.5
16,CCCCCCCCCCCCCCCCCCSc1nc(NCCCCCCCC)nc(NCCCN2CCOCC2)n1 [Compound D8S18N8],0.5
17,CCCCCCCNc1nc(NCCCN2CCOCC2)nc(SCCCCCC)n1 [Compound D8S6N7],0.4
18,CCCCCCCCCCSc1nc(NCCCN2CCOCC2)nc(SCCCCCCC)n1 [Compound D8S7S10],11.4
19,CCCCCCCCCSc1nc(NCCCCCCC)nc(NCCCN2CCOCC2)n1 [Compound D8S9N7],2.2
20,CCCCCCCCCCSc1nc(NCCN2CCN(C)CC2)nc(SCCCCCCCC)n1 [Compound D5S8S10],65.6
21,CCCCCCCCCCCCCCCCCCSc1nc(NCCCCCCCCCCCCCCCC)nc(NCCN2CCOCC2)n1 [Compound D2S18N16],0.0
22,CCCCCCCCCCCCCCCCSc1nc(NCCCCCCCCCCCCC)nc(NCCCN2CCOCC2)n1 [Compound D8S16N13],0.1
23,CCCCCCCCCCCCCCCNc1nc(NCCN2CCOCC2)nc(SCCCCCC)n1 [Compound D2S6N15],1.2
24,CCCCCCCCCCCCCCCSc1nc(NCCCCCCCCCCC)nc(NCCN(CC)CC)n1 [Compound D7S15N11],5.0
